Results from US8211927B2, “5-phenyl-isoxazole-3-carboxamide derivatives as TRPV1 modulators” (MSD, Oss B.V., priority 2007, dated 2012).

Target: T1, human VR1 (Homo sapiens, UniProt Q8NER1)
T1 construct: expressed in transfected cells
Assay: FLIPR Calcium 3 calcium flux assay (headed Vanilloid Receptor Binding Assay), antagonist activity against capsaicin
Format: cell-based
Settings: Chinese hamster ovary cells expressing human VR1; for inhibition at 10 µM: 10 min, highest concentration of 10 μM, read-out: TRPV1 % Mean effect at 10 μM concentration; for EC50: antagonist activity vs 30 nM capsaicin, read-out: TRPV1 pEC50 (converted)
Excerpt: Methods to construct such recombinant cell lines are well known in the art (Sambrook et al., Molecular Cloning: a Laboratory Manual, Cold Spring Harbor Laboratory Press, Cold Spring Harbor, 2000). The compounds of the invention are thus useful in the treatment of TRPV1 mediated disorders, such as in the treatment of acute and chronic pain disorders, acute and chronic neuropathic pain, acute and chronic inflammatory pain, respiratory diseases and in lower urinary tract disorders.
Test compounds were prepared as stock solution in dimethylsulfoxide and tested for activity over several log units (ranging 100 μM-100 pM). Compounds were further diluted in assay buffer as necessary for IC50 determination.
Chinese hamster ovary cells expressing human VR1 were grown in DMEM/F12 50/50 Mix (Mediatech, Inc., Herndon, Va., USA), supplemented with 10% FetalClone II (Hyclone, Logan, Utah, USA), 1% GlutaMax (Invitrogen Corp., Carlsbad, Calif., USA), 1% Pen/Strep (Mediatech) and 0.4 mg/ml G418 (Mediatech). The day before the assay, cells were seeded into 384-well tissue culture-treated black plates with clear bottoms (Corning, Inc., Corning, N.Y., USA), at 10,000 viable cells/well in 50 μl/well of medium containing no G418.
On the day of the assay, which is the FLIPR® Calcium 3 Assay commercially available from Molecular Devices Corp., Sunnyvale, Calif. USA, the plating medium was removed and replaced with 25 μl/well 1× Calcium 3 Assay kit dye, prepared in VR1 Buffer (160 mM NaCl, 4.5 mM KCl, 10 mM HEPES, 10 mM Glucose, 2 mM CaCl2, 1 mM MgCl2 and 0.5 mM Probenecid). After 1 hour incubation at room temperature, the plates were loaded into the FLIPR (Molecular Devices, Corp.), which adds 12.5 μl of test compound in VR1 Buffer containing 4% dimethylsulfoxide and reads the subsequent change in the fluorescence of the cells to monitor agonist activity. Ten minutes after compound addition, the plates were reloaded into the FLIPR, which adds 12.5 μl of 30 nM capsaicin in VR1 Buffer and reads the subsequent change in the fluorescence of the cells to monitor antagonist activity. In this way, the same assay was used to assess both the agonist activity and antagonist activity of test compounds.

T1 sequence (Q8NER1 whole entry): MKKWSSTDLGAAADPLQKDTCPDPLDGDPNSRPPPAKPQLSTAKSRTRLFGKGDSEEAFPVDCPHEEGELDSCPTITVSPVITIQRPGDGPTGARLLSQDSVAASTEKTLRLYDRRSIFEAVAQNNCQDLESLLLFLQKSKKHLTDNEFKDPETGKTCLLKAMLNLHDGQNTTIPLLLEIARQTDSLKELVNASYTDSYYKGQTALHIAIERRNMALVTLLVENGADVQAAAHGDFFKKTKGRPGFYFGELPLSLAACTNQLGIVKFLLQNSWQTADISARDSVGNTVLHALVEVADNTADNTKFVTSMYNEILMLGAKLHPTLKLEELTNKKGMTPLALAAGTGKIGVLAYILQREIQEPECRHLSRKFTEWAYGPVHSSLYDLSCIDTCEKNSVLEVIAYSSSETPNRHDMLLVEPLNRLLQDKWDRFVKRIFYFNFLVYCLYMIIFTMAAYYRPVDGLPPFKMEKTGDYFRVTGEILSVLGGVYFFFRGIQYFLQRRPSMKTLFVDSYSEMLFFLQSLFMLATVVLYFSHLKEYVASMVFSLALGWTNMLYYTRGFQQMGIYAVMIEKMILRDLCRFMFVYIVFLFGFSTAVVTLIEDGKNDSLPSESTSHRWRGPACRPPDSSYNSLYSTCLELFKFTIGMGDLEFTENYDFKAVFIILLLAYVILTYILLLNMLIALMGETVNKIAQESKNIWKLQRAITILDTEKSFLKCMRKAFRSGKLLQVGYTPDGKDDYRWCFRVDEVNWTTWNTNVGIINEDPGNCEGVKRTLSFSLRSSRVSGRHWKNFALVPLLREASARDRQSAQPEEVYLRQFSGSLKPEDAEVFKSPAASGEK

SMILES | inhibition at 10 µM | EC50
O=C(NC1CCCC1)c1noc(-c2ccc(C(F)(F)F)cc2)c1F | 96% | 0.0316 µM
O=C(NC1CCCC1)c1noc(-c2ccc(C(F)(F)F)cc2)c1Br | 67% | 0.01 µM
CCCc1c(C(=O)CC2CCCC2)noc1-c1ccc(C(F)(F)F)cc1 | 98% | 0.1 µM
O=C(Nc1cccc(CO)c1)c1noc(-c2ccc(C(F)(F)F)c(F)c2)c1Cl | 103% | 0.0316 µM
CC[C@H](CO)NC(=O)c1noc(-c2ccc(C(F)(F)F)c(F)c2)c1C | 99% | 0.0631 µM
Cc1c(C(=O)N[C@@H](C)C(C)C)noc1-c1ccc(C(F)(F)F)c(F)c1 | 103% | 0.1 µM
O=C(NC1CCCC1)c1noc(-c2ccc(Cl)cc2)c1Cl | 102% | 0.0158 µM
CCCC(C)NC(=O)c1noc(-c2ccc(Cl)cc2)c1Cl (centres unmarked) | 89% | 0.158 µM
O=C(NC1CCCC1)c1cc(-c2ccc(Cl)cc2)on1 | 17% | –
CCCC(C)NC(=O)c1cc(-c2ccc(Cl)cc2)on1 (centres unmarked) | 50% | –

Continued, values first:

inhibition at 10 µM | EC50 | SMILES
101% | 0.0398 µM | Cc1c(C(=O)NC2CCCC2)noc1-c1ccc(C(F)(F)F)cc1
89% | 0.0316 µM | O=C(NC1CCOCC1)c1noc(-c2ccc(C(F)(F)F)cc2)c1Cl
98% | 0.1 µM | O=C(NC1CCCC1)c1noc(-c2ccc(F)cc2)c1Cl
88% | 0.0631 µM | O=C(NC1CCCCC1)c1noc(-c2ccc(Cl)cc2)c1Cl
99% | 0.0126 µM | Cc1c(C(=O)NC2CCOCC2)noc1-c1ccc(C(F)(F)F)c(F)c1
90% | 0.00398 µM | O=C(NC1CCCC1)c1noc(-c2ccc(C(F)(F)F)cc2)c1Cl
97% | 0.501 µM | O=C(NC1CCCC1)c1cc(-c2ccc(C(F)(F)F)cc2)on1
